These results are taken from patent US20120015988A1, “Sulfone Compounds Which Modulate The CB2 Receptor” (BOEHRINGER INGELHEIM INTERNATIONAL GMBH, priority 2008, published 2012).

pEC50: −log10 of the molar value.

T1 sequence (P34972 whole entry): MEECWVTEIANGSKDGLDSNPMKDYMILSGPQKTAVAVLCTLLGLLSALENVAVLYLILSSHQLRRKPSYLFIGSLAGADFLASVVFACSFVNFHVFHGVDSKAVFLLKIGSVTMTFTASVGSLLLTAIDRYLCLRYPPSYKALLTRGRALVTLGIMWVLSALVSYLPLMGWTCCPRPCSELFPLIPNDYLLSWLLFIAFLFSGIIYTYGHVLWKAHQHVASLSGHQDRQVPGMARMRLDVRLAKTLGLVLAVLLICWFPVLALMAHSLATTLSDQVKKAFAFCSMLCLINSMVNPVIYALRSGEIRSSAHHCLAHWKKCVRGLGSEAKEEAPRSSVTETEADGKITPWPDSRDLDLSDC

The experiment concerns the target T1, human CB2R (Homo sapiens, UniProt P34972).
T1 construct: host or cells: CHO cells
The experiment in a line: CB2R mediated modulation of cAMP synthesis. Type of experiment: cell-based. The conditions noted are these: CHO cells expressing human CB2R; concentration at which 50% of the forskolin-stimulated cAMP synthesis was inhibited; 100% defined by 1 uM CP55940; read-out: CB2 EC50. How it is done:
B. CB2R Mediated Modulation of Camp Synthesis:
Compounds of the invention were evaluated for their CB2 agonist or inverse agonistic activity in accordance with the following experimental method.
CHO cells expressing human CB2R (Euroscreen) were plated at a density of 5000 cells per well in 384 well plates and incubated overnight at 37° C. After removing the media, the cells were treated with test compounds diluted in stimulation buffer containing 1 mM IBMX, 0.25% BSA and 10 uM Forskolin. The assay was incubated for 30 minutes at 37° C. Cells were lysed and the cAMP concentration was measured using DiscoverX-XS cAMP kit, following the manufacturer's protocol. In this setting, agonists will decrease forskolin induced production of cAMP while inverse agonists will further increase forskolin induced production of cAMP. EC50 of agonists were calculated as follows. The maximal amount of cAMP produced by forskolin compared to the level of cAMP inhibited by 1 uM CP55940 is defined as 100%. The EC50 value of each test compound was determined as the concentration at which 50% of the forskolin-stimulated cAMP synthesis was inhibited. Data was analyzed using a four-parameter logistic model. (Model 205 of XLfit 4.0).
What is called pEC50 is the EC50 on a negative log10 scale, so that one unit is a factor of ten. For `CC(C)(C)c1cc(-c2noc(C(C)(C)S(=O)(=O)CC3CCOCC3)n2)on1` [Example 36, 3-(3-tert-butyl-isoxazol-5-yl)-5-[1-methyl-1-(tetrahydro-pyran-4-ylmethanesulfonyl)-ethyl]-[1,2,4]oxadiazole], the negative logarithm of the EC50 (pEC50) is 7.82.
For the molecule `CC(C)(C)c1cc(-c2nc(C(C)(C)S(=O)(=O)c3ccc(F)cc3)no2)on1` [Example 37, 5-(3-tert-butyl-isoxazol-5-yl)-3-[1-(4-fluoro-benzenesulfonyl)-1-methyl-ethyl]-[1,2,4]oxadiazole], the negative logarithm of the EC50 (pEC50) is 9.00.
As to `CC(C)(C)c1cc(-c2nc(C(C)(C)S(=O)(=O)CC3CCOCC3)no2)on1` [Example 38, 5-(3-tert-butyl-isoxazol-5-yl)-3-[1-methyl-1-(tetrahydro-pyran-4-ylmethanesulfonyl)-ethyl]-[1,2,4]oxadiazole], the pEC50 is 6.68.
In the case of `CC(C)(C)c1cc(-c2nnc(C(C)(C)S(=O)(=O)c3ccc(F)cc3)s2)on1` [Example 39, 2-(3-tert-butyl-isoxazol-5-yl)-5-[1-(4-fluoro-benzenesulfonyl)-1-methyl-ethyl]-[1,3,4]thiadiazole], the negative-log EC50 (pEC50) was 8.17.
Next, `CC(C)(C)c1cc(-c2nnc(C(C)(C)S(=O)(=O)c3ccc(F)cc3)s2)no1` [Example 40, 2-(5-tert-butyl-isoxazol-3-yl)-5-[1-(4-fluoro-benzenesulfonyl)-1-methyl-ethyl]-[1,3,4]thiadiazole]: 7.77.
Consider `Cn1nc(C(C)(C)C)cc1-c1nnc(C(C)(C)S(=O)(=O)c2ccc(F)cc2)s1` [Example 41, 2-(5-tert-butyl-2-methyl-2H-pyrazol-3-yl)-5-[1-(4-fluoro-benzenesulfonyl)-1-methyl-ethyl]-[1,3,4]thiadiazole], for which the pEC50 was 8.60.
For `Cn1nc(C(C)(C)C)cc1-c1nnc(C(C)(C)S(=O)(=O)C2CCOCC2)s1` [Example 42, 2-(5-tert-butyl-2-methyl-2H-pyrazol-3-yl)-5-[1-methyl-1-(tetrahydro-pyran-4-sulfonyl)-ethyl]-[1,3,4]thiadiazole], the pEC50 was 6.93.
Then `CC(C)(CO)c1cc(-c2nnc(C(C)(C)S(=O)(=O)c3ccc(F)cc3)s2)on1` [Example 43, 2-(5-{5-[1-(4-fluoro-benzenesulfonyl)-1-methyl-ethyl]-[1,3,4]thiadiazol-2-yl}-isoxazol-3-yl)-2-methyl-propan-1-ol], with 6.76.
On to `Cn1nc(C(C)(C)C)cc1-c1nnc(C(C)(C)S(=O)(=O)c2ccc(F)cc2)[nH]1` [Example 44, 3-(5-tert-butyl-2-methyl-2H-pyrazol-3-yl)-5-[1-(4-fluoro-benzenesulfonyl)-1-methyl-ethyl]-4H-[1,2,4]triazole], for which the negative logarithm of the EC50 (pEC50) was 8.70.
With `CC(C)(C)c1cc(-c2nnc(C(C)(C)S(=O)(=O)c3ccc(F)cc3)[nH]2)on1` [Example 45, 3-(3-tert-butyl-isoxazol-5-yl)-5-[1-(4-fluoro-benzenesulfonyl)-1-methyl-ethyl]-4H-[1,2,4]triazole], the pEC50 is 6.59.
Regarding `Cn1nc(C(C)(C)C)cc1-c1nnc(C(C)(C)S(=O)(=O)CC2CCOCC2)[nH]1` [Example 46, 3-(5-tert-butyl-2-methyl-2H-pyrazol-3-yl)-5-[1-methyl-1-(tetrahydro-pyran-4-ylmethanesulfonyl)-ethyl]-4H-[1,2,4]triazole], the pEC50 was 6.38.
Regarding `Cn1nc(C(C)(C)C)cc1-c1nnc(C(C)(C)S(=O)(=O)Cc2ccc(F)cc2)[nH]1` [Example 48, 3-(5-tert-butyl-2-methyl-2H-pyrazol-3-yl)-5-[1-(4-fluoro-phenylmethanesulfonyl)-1-methyl-ethyl]-4H-[1,2,4]triazole], the negative logarithm of the EC50 (pEC50) is 6.89.
Regarding `CC(C)(C)c1cc(-c2nnc(C(C)(C)S(=O)(=O)Cc3ccc(F)cc3)[nH]2)on1` [Example 49, 3-(3-tert-Butyl-isoxazol-5-yl)-5-[1-(4-fluoro-phenylmethanesulfonyl)-1-methyl-ethyl]-4H-[1,2,4]triazole], the negative-log EC50 (pEC50) is 6.53.
Next, `Cn1nc(C(C)(C)C)cc1-c1nnc(C(C)(C)S(=O)(=O)CC2CCC(O)CC2)[nH]1` (centres unmarked) [Example 51, 4-{2-[5-(5-tert-butyl-2-methyl-2H-pyrazol-3-yl)-4H-[1,2,4]triazol-3-yl]-propane-2-sulfonylmethyl}-cyclohexanol]: 6.34.
